Experimental findings from US7829296B2, “Kinesin polypeptides, polynucleotides encoding same and compositions and methods of using same” (Ramot at Tel-Aviv University Ltd., priority 2005, dated 2010) are described below.

Test [1] relates to ERK1/2 in MBA-15 cells. In words: pERK1/2 in anti-MS-KIF18A immunoprecipitates (MS-KIF18A-ERα complex), Western blot. It counts as cell-based. Conditions: for ERK activation in anti-MS-KIF18A immunoprecipitate after pretreatment: then 17β-estrogen. The method, then:
(§1) For immunoprecipitation (IP), anti-MS-KIF18A and protein-A sepharose beads (Sigma, USA) were added to lysates and samples were incubated overnight at 4° C. Immunocomplexes were precipitated at 16,000 g for 1 minute and washed 4 times with lyses buffer. The washed beads were re-suspended in Lamelli sample buffer and boiled for 3 minutes. The proteins were separated on 8% SDS-PAGE gel for 2 hours and transferred to nitrocellulose for 1.5 hours.
(§2) For Western blot, the membranes were blocked with 5% BSA in TBST (50 mM Tris, pH-7.5, 150 mM NaCl, 0.1% Tween-20, Sigma, USA) for 1 hour at RT or overnight and than incubated with anti-MS-KIF18A. The membranes were washed with TBST and incubated with goat anti-rabbit or goat anti-mouse conjugated to biotin (Dako, Denmark) for 40 minutes at RT and Extravidin-Peroxidase (Sigma, USA) for detection with chemiluminescent substrate (Pierce, USA).
(§3) Estrogen signaling, ERK1/2 pathway: MBA-15 cells were maintained in medium supplemented with 3% charcoal striped FCS for 48 hours prior to the start of the experiment. On the day of the experiment, the cells were pretreated with 25 μM MAPK inhibitor, PD98059 (Calbiochem, USA) and an estrogen antagonist ICI 182,780 10^−6M (Tocris, USA) for 45 minutes. 10^−8M 17β-estrogen (Sigma, USA) was added for five minutes. Cell lysates were used for immunoprecipitation and analyzed by Western blot.
(§4) Immunoprecipitation, Western blot, SDS-PADE gel: All experiments were performed as described in Example 1. Primary antibodies included anti-MS-KIF18A, anti-ER antibodies (Upstate Biotechnologies, USA) or SRA-1010 (Stressgen, Canada), anti-ERK1/2, pERK1/2 (Sigma, USA) or anti-His-tag (Santa Cruz Biotechnologies, USA). For detection a secondary antibody conjugated to biotin-extravidine-peroxidase and chemiluminescent substrate was used (Pierce, USA).
For orientation: Immunoblotting shows a protein as a band on a membrane.

Test [2] concerns ERK1/2 in MBA-15 cells. In words: Estrogen signaling, ERK1/2 pathway: Western blot for pERK1/2 on whole cell lysates. It counts as cell-based. To be noted: FIG. 16A; for 17βE2-induced increase of pERK1/2 after pretreatment: then 10^−8M 17β-estrogen five minutes. The method, then: Western blot analysis and Immunoprecipitation: Cells were harvested from cultures, washed twice with ice-cold PBS and collected in presence of protease inhibitors (Phenylmethylsulfonyl fluoride PMSF, 1 mM; 1-Chloro-3-tosylamido-4-phenyl-2-butanone, TPCK, 10 μg/ml; Aprotinin, 10 μg/ml (Sigma, USA) and phosphatase inhibitor cocktails I and II (Sigma, USA). Samples were spun down at 1500 rpm for 4 minutes and pellets were reconstituted in lyses buffer (50 mM Tris pH 7.5, 150 mM NaCl, 1% NP-40, and protease and phosphatase inhibitors, as above). Following a 20 minute incubation at 4° C., samples were centrifuged at 16,000 g for 5 minutes.
as §2, §3, §4

Test [3] addresses T1, ERα 66 kDa (Homo sapiens, UniProt P03372).
T1 construct: expressed in transfected cells; host or cells: COS-7
T1 sequence (P03372 1-595): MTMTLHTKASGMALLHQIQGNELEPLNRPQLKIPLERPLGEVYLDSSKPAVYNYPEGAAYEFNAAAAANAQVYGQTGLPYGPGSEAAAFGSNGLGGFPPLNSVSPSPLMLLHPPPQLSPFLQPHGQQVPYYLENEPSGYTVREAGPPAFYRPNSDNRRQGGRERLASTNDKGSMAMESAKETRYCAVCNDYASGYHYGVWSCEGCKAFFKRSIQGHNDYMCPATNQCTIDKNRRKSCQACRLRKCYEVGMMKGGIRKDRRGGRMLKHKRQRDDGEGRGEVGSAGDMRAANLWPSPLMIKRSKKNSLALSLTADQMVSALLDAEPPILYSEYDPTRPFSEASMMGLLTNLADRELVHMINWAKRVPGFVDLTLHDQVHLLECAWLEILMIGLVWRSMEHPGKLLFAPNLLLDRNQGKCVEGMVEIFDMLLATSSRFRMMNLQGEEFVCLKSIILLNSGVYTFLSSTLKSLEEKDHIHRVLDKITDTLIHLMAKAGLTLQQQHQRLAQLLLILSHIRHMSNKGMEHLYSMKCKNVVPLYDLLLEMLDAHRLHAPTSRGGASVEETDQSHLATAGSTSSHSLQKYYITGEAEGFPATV
T1 sequence (Q8NI77 1-898 I735V partner): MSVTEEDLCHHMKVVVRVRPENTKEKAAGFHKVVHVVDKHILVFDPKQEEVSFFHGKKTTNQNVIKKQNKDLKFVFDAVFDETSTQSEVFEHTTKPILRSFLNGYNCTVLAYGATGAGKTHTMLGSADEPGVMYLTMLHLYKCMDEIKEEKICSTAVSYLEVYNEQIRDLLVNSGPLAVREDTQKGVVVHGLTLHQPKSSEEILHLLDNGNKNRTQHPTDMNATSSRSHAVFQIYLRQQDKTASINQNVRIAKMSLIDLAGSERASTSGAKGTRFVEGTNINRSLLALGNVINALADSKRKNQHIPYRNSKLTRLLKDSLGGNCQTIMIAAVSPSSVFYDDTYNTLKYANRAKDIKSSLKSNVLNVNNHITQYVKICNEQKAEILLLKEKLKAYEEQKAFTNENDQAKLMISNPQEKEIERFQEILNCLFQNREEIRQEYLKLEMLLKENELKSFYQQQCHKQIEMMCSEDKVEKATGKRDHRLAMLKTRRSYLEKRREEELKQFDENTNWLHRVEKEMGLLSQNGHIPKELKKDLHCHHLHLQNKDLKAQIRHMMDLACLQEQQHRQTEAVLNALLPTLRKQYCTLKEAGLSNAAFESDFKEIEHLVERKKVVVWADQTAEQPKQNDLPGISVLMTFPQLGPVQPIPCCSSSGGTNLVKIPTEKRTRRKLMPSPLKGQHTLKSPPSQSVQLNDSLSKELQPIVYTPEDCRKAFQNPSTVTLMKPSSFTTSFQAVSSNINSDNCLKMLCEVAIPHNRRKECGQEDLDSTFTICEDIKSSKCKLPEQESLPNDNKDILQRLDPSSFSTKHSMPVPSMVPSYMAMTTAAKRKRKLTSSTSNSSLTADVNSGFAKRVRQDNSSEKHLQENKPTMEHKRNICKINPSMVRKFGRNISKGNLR
In words: Co-immunoprecipitation of co-transfected His-MS-KIF18A and ERα 66 kDa in COS-7 cells. It counts as binding. Conditions: COS-7 cells co-transfected with His-MS-KIF18A and ERα 66 kDa, FIGS. 14A-B. The method, then: as §1, §2
Immunoprecipitation, Western blot, SDS-PADE gel: All experiments were performed as described in Example 1. Primary antibodies included anti-MS-KIF18A, anti-ER antibodies (Upstate Biotechnologies, USA) or SRA-1010 (Stressgen, Canada), anti-ERK1/2, pERK1/2 (Sigma, USA) or anti-His-tag (Santa Cruz Biotechnologies, USA). For detection a secondary antibody conjugated to biotin-extravidine-peroxidase and chemiluminescent substrate was used (Pierce, USA). […]

The subject of test [4] is ERα. In words: Co-immunoprecipitation of endogenous MS-KIF18A and ERα in MBA-15 cells. Conditions: MBA-15 cell lysates, antibodies directed against MS-KIF18A, FIG. 15. It counts as binding. The method, then: as §1, §2, §4

In the case of 17β-estrogen [17βE2], the “activated ERK in anti-MS-KIF18A immunoprecipitate following estrogen treatment” value in test [1] (10^−8M 17β-estrogen five minutes, FIG. 16D lane 4) is reported as “increase in activated ERK”. The “pERK1/2 following 17βE2 stimulation” value in test [2] (10^−8M 17β-estrogen for five minutes) is given as “increase”.

In the case of `C[C@]12CC[C@@H]3c4ccc(O)cc4C[C@@H](CCCCCCCCC[S+]([O-])CCCC(F)(F)C(F)(F)F)[C@H]3[C@@H]1CC[C@@H]2O` (some centres unmarked) [ICI 182,780], in test [1] (pretreated with ICI 182,780 10^−6M 45 minutes, FIG. 16D lane 3, FIG. 16E), the “ERK activation in anti-MS-KIF18A immunoprecipitate after pretreatment” value is “reduced ERK activation”. Besides, in test [2] (pretreated with ICI 182,780 10^−6M for 45 minutes), the “17βE2-induced increase of pERK1/2 after pretreatment” value is recorded as “inhibited”.

On to `COc1cccc(-c2cc(=O)c3ccccc3o2)c1N` [PD98059], for which, in test [1] (pretreated with 25 μM PD98059 45 minutes, FIG. 16D lane 2, FIG. 16E), the “ERK activation in anti-MS-KIF18A immunoprecipitate after pretreatment” value was “reduced ERK activation”. The “17βE2-induced increase of pERK1/2 after pretreatment” value in test [2] (pretreated with 25 μM PD98059 for 45 minutes) is “inhibited”.

B1: His-MS-KIF18A: His-tagged MS-KIF18A expressed from pcDNA3.1-His-C-MS-KIF18A in COS-7 cells (protein)
chain: MSVTEEDLCHHMKVVVRVRPENTKEKAAGFHKVVHVVDKHILVFDPKQEEVSFFHGKKTTNQNVIKKQNKDLKFVFDAVFDETSTQSEVFEHTTKPILRSFLNGYNCTVLAYGATGAGKTHTMLGSADEPGVMYLTMLHLYKCMDEIKEEKICSTAVSYLEVYNEQIRDLLVNSGPLAVREDTQKGVVVHGLTLHQPKSSEEILHLLDNGNKNRTQHPTDMNATSSRSHAVFQIYLRQQDKTASINQNVRIAKMSLIDLAGSERASTSGAKGTRFVEGTNINRSLLALGNVINALADSKRKNQHIPYRNSKLTRLLKDSLGGNCQTIMIAAVSPSSVFYDDTYNTLKYANRAKDIKSSLKSNVLNVNNHITQYVKICNEQKAEILLLKEKLKAYEEQKAFTNENDQAKLMISNPQEKEIERFQEILNCLFQNREEIRQEYLKLEMLLKENELKSFYQQQCHKQIEMMCSEDKVEKATGKRDHRLAMLKTRRSYLEKRREEELKQFDENTNWLHRVEKEMGLLSQNGHIPKELKKDLHCHHLHLQNKDLKAQIRHMMDLACLQEQQHRQTEAVLNALLPTLRKQYCTLKEAGLSNAAFESDFKEIEHLVERKKVVVWADQTAEQPKQNDLPGISVLMTFPQLGPVQPIPCCSSSGGTNLVKIPTEKRTRRKLMPSPLKGQHTLKSPPSQSVQLNDSLSKELQPIVYTPEDCRKAFQNPSTVTLMKPSSFTTSFQAVSSNINSDNCLKMLCEVAIPHNRRKECGQEDLDSTFTICEDIKSSKCKLPEQESLPNDNKDILQRLDPSSFSTKHSMPVPSMVPSYMAMTTAAKRKRKLTSSTSNSSLTADVNSGFAKRVRQDNSSEKHLQENKPTMEHKRNICKINPSMVRKFGRNISKGNLR
modifications: left off: small tags and cut ends
notes: His-tagged MS-KIF18A expressed from pcDNA3.1-His-C-MS-KIF18A in COS-7 cells
B1: the “interaction with ERα 66 kDa (pull-down by anti-MS-KIF18A and anti-His antibodies)” value in test [3] is on record as “interaction”.

B2: MS-KIF18A: novel kinesin KIF18A polypeptide of 898 amino acids expressed in mesenchymal stem cells, SEQ ID NO: 2 (protein, listed as Homo sapiens)
chain: MSVTEEDLCHHMKVVVRVRPENTKEKAAGFHKVVHVVDKHILVFDPKQEEVSFFHGKKTTNQNVIKKQNKDLKFVFDAVFDETSTQSEVFEHTTKPILRSFLNGYNCTVLAYGATGAGKTHTMLGSADEPGVMYLTMLHLYKCMDEIKEEKICSTAVSYLEVYNEQIRDLLVNSGPLAVREDTQKGVVVHGLTLHQPKSSEEILHLLDNGNKNRTQHPTDMNATSSRSHAVFQIYLRQQDKTASINQNVRIAKMSLIDLAGSERASTSGAKGTRFVEGTNINRSLLALGNVINALADSKRKNQHIPYRNSKLTRLLKDSLGGNCQTIMIAAVSPSSVFYDDTYNTLKYANRAKDIKSSLKSNVLNVNNHITQYVKICNEQKAEILLLKEKLKAYEEQKAFTNENDQAKLMISNPQEKEIERFQEILNCLFQNREEIRQEYLKLEMLLKENELKSFYQQQCHKQIEMMCSEDKVEKATGKRDHRLAMLKTRRSYLEKRREEELKQFDENTNWLHRVEKEMGLLSQNGHIPKELKKDLHCHHLHLQNKDLKAQIRHMMDLACLQEQQHRQTEAVLNALLPTLRKQYCTLKEAGLSNAAFESDFKEIEHLVERKKVVVWADQTAEQPKQNDLPGISVLMTFPQLGPVQPIPCCSSSGGTNLVKIPTEKRTRRKLMPSPLKGQHTLKSPPSQSVQLNDSLSKELQPIVYTPEDCRKAFQNPSTVTLMKPSSFTTSFQAVSSNINSDNCLKMLCEVAIPHNRRKECGQEDLDSTFTICEDIKSSKCKLPEQESLPNDNKDILQRLDPSSFSTKHSMPVPSMVPSYMAMTTAAKRKRKLTSSTSNSSLTADVNSGFAKRVRQDNSSEKHLQENKPTMEHKRNICKINPSMVRKFGRNISKGNLR
For the molecule B2, in test [4], the “association with endogenous ERα (co-immunoprecipitation)” value was “confirmed the association”.
